From patent US20260285853A1, “COMPOUNDS AND METHODS FOR MODULATING SPLICING” (REMIX THERAPEUTICS INC., priority 2023, published 2026)

How the values were obtained:
Assay type in all cases: cell-based
[1] = test system: SH-SY5Y (human neuroblastoma) cells; experiment: Cell viability, Cell Titer Glo 2.0 assay; conditions: read-out: Viability SHSY5Y.3 GI50
Method: Compounds described herein were screened for toxicity in K562 (human chronic myelogenous leukemia) and SH-SY5Y (human neuroblastoma) cells using a Cell Titer Glo 2.0 assay.
• Promega CellTiter-Glo® 2.0 Cell Viability Assay (cat #G9241) • Corning 384-well TC-treated microplates (cat #3570)
Cells were plated at 500 cells/well (K562 cells) in 45 μL of IMDM supplemented with 10% FBS in a 384-well opaque plate. Wells containing only medium were used as a blank control. Test compounds (e.g., compounds of Formula (I) or (II) were first serially diluted in DMSO then diluted 1:100 with IMDM+10% FBS. The final concentration of DMSO was 0.1% in each well. The cells were incubated for 72 hours at 37° C. and 5% CO2 before assaying with Cell Titer Glo 2.0 reagent.

MYB mRNA [2] = experiment: Splicing RT-qPCR assay (THP), Table 2A; conditions: Table 2A (THP); for AC50: AJ mRNA increase, read-out: MYB AJ (increase in alternative junction mRNA, AC50); for IC50: CJ mRNA decrease, read-out: MYB CJ (decrease in canonical junction mRNA, IC50)
HTT mRNA [3] = experiment: Splicing RT-qPCR assay (THP), Table 2A; conditions: Table 2A (THP); for AC50: AJ mRNA increase, read-out: HTT AJ (increase in alternative junction mRNA, AC50); for IC50: CJ mRNA decrease, read-out: HTT CJ (decrease in canonical junction mRNA, IC50)
HTT mRNA [4] = experiment: Gene panel canonical junction qPCR assay, decrease in CJ mRNA, Table 3; conditions: decrease in canonical junction (CJ) mRNA, gene panel qPCR, Table 3
Method: (§1) Compounds described herein were used to modulate RNA transcript abundance in cells. The expression of a target mRNA was measured by detecting the formation of an exon-exon junction in the canonical transcript (CJ). A compound mediated exon-inclusion event was detected by observing an increase in formation of a new junction with an alternative exon (AJ). Real-time qPCR assays were used to detect these splicing switches and interrogate the potency of various compounds towards different target genes. A high-throughput real time quantitative PCR (RT-qPCR) assay was developed to measure these two isoforms of the mRNA (CJ and AJ) for exemplary genes, such as HTT, SMN2, and MYB, together with a control housekeeping gene, GAPDH or GUSB or PPIA, used for normalization. Briefly, the A673 or K562 cell line was treated with various compounds described herein (e.g., compounds of Formula (I)). After treatment, the levels of the HTT, MYB, or SMN2 mRNA targets were determined from each sample of cell lysate by cDNA synthesis followed by qPCR.
(§2) The A673 cell line was cultured in DMEM with 10% FBS. Cells were diluted with full growth media and plated in a 96-well plate (15,000 cells in 100 ul media per well). The plate was incubated at 37° C. with 5% CO2 for 24 hours to allow cells to adhere. An 11-point 3-fold serial dilution of the compounds was made in DMSO then diluted in media in an intermediate plate. Compounds were transferred from the intermediate plate to the cell plate with the top dose at a final concentration of 10 uM in the well. Final DMSO concentration was kept at or below 0.25%. The cell plate was returned to the incubator at 37° C. with 5% CO2 for an additional 24 hours.
(§3) The K562 cell line was cultured in IMDM with 10% FBS. For K562, cells were diluted with full growth media and plated in either a 96-well plate (50,000 cells in 50 uL media per well) or a 384-well plate (8,000-40,000 cells in 45 uL media per well). An 11-point 3-fold serial dilution of the compounds were made in DMSO then diluted in media in an intermediate plate. Compound was transferred from the intermediate plate to the cell plate with the top dose at a final concentration of 10 uM in the well. Final DMSO concentration was kept at or below 0.25%. Final volume was 100 uL for 96-well plate and 50 uL for 384-well plate. The cell plate was then placed in an incubator at 37° C. with 5% CO2 for 24 hours.
(§4) The data analysis was performed by first determining the ΔCt vs the housekeeper gene. This ΔCt was then normalized against the DMSO control (ΔΔCt) and converted to RQ (relative quantification) using the 2^(−ΔΔCt) equation. The RQ were then converted to a percentage response by arbitrarily setting an assay window of 3.5 and 4.0 ΔCt for HTT-CJ and MYB-CJ respectively and an assay window of 9 and 3 ΔCt for HTT-AJ and MYB-AJ in 96 well format (50,000 K562 cells/well and 15,000 A673 cells per well) and an assay window of 3 and 4 ΔCt for HTT-CJ and MYB-CJ respectively and an assay window of 5 and 3 ΔCt for HTT-AJ and MYB-AJ respectively in 384 well format (8,000 K562 cells/well example). […] The percentage response was then fitted to the 4 parametric logistic equation to evaluate the concentration dependence of compound treatment. The increase in AJ mRNA is reported as AC50 (compound concentration having 50% response in AJ increase) while the decrease in CJ mRNA levels is reported as IC50 (compound concentration having 50% response in CJ decrease).
(§5) Additional studies were carried out for a larger panel of genes using the protocol provided above. The junction between flanking upstream and downstream exons was used to design canonical junction qPCR assays. At least one of the forward primer, reverse primer or the CY5-labeled 5′ nuclease probe (with 3′ quencher such as ZEN/Iowa Black FQ) was designed to overlap with the exon junction to capture the CJ mRNA transcript. […]

MYB mRNA [5] = experiment: as above; conditions: decrease in canonical junction (CJ) mRNA, gene panel qPCR, Table 3
Method: as §1, §2, §3, §4, §5

Structure (SMILES)	GI50 [1] [nM]	AC50 (MYB mRNA [2]) [nM]	IC50 (MYB mRNA [2]) [nM]	AC50 (HTT mRNA [3]) [nM]	IC50 (HTT mRNA [3]) [nM]	IC50 (HTT mRNA [4]) [nM]	IC50 (MYB mRNA [5]) [nM]
CCNC1CCN(c2ccc(C(=O)Nc3cc(Oc4ccccc4C)c4nc(C)cn4c3)c3nn(C)cc23)CC1 [Compound 316, 4-[4-(ethylamino)-1-piperidyl]-2-methyl-N-[2-methyl-8-(2-methylphenoxy)imidazo[1,2-a]pyridin-6-yl]indazole-7-carboxamide]	1000 to 10000	> 10000	1000 to 10000	> 10000	> 10000	> 10000	1000 to 10000
CCNC1CCN(c2ccc(C(=O)Nc3cc(C(N)=O)c4nc(C)cn4c3)c3nn(C)cc23)CC1 [Compound 317, N-(8-carbamoyl-2-methylimidazo[1,2-a]pyridin-6-yl)-4-(4-(ethylamino)piperidin-1-yl)-2-methyl-2H-indazole-7-carboxamide 2,2,2-trifluoroacetate]	> 10000	> 10000	> 10000	> 10000	> 10000	> 10000	> 10000
CCNC1CCN(c2ccc(C(=O)Nc3cc(C(=O)O)c4nc(C)cn4c3)c3nn(C)cc23)CC1 [Compound 318, 6-[[4-[4-(ethylamino)-1-piperidyl]-2-methyl-indazole-7-carbonyl]amino]-2-methyl-imidazo[1,2-a]pyridine-8-carboxylic acid 2,2,2-trifluoroacetic acid]	> 10000	> 10000	> 10000	> 10000	> 10000	> 10000	> 10000
CCNC1CCN(c2ccc(C(=O)Nc3cc(C(=O)NC)c4nc(C)cn4c3)c3nn(C)cc23)CC1 [Compound 319, 4-(4-(ethylamino)-piperidin-1-yl)-2-methyl-N-(2-methyl-8-(methylcarbamoyl)-imidazo[1,2-a]-pyridin-6-yl)-2H-indazole-7-carboxamide 2,2,2-trifluoroacetate]	> 10000	> 10000	> 10000	> 10000	> 10000	> 10000	> 10000
COc1c(NC(=O)c2c(F)cc(N3CCC(NC4CC4)CC3)c3cn(C)nc23)cn2cc(C)nc2c1C#N [Compound 320, N-(8-cyano-7-methoxy-2-methyl-imidazo[1,2-a]pyridin-6-yl)-4-[4-(cyclopropylamino)-1-piperidyl]-6-fluoro-2-methyl-indazole-7-carboxamide]	100 to 1000	100 to 1000	100 to 1000	100 to 1000	100 to 1000	100 to 1000	100 to 1000
Cc1cn2cc(NC(=O)c3c(F)cc(N4CCC(NC5CC5)CC4)c4cn(C)nc34)c(OCC3CC3)c(F)c2n1 [Compound 321, 4-[4-(cyclopropylamino)-1-piperidyl]-N-[7-(cyclopropylmethoxy)-8-fluoro-2-methyl-imidazo[1,2-a]-pyridin-6-yl]-6-fluoro-2-methyl-indazole-7-carboxamide]	< 100	< 100	< 100	< 100	100 to 1000	100 to 1000	< 100
Cc1cn2cc(NC(=O)c3ccc(N4CCC(NC5CC5)CC4)c4cn(C)nc34)cc(Oc3ccnnc3)c2n1 [Compound 322, 4-[4-(cyclopropyl-amino)-1-piperidyl]-2-methyl-N-(2-methyl-8-pyridazin-4-yloxy-imidazo[1,2-a]-pyridin-6-yl)-indazole-7-carboxamide]	1000 to 10000	1000 to 10000	1000 to 10000	1000 to 10000	1000 to 10000	1000 to 10000	1000 to 10000
CCNC1CCN(c2ccc(C(=O)Nc3cn4cc(C)nc4cc3OC)c3nn(C)cc23)CC1 [Compound 323, 4-[4-(ethylamino)-1-piperidyl]-N-(7-methoxy-2-methyl-imidazo[1,2-a]-pyridin-6-yl)-2-methyl-indazole-7-carboxamide 2,2,2-trifluoroacetate]	1000 to 10000	100 to 1000	100 to 1000	1000 to 10000	1000 to 10000	1000 to 10000	100 to 1000
CCNC1CCN(c2ccc(C(=O)Nc3cc(OCc4ccccc4)c4nc(C)cn4c3)c3nn(C)cc23)CC1 [Compound 324, N-(8-benzyloxy-2-methylimidazo[1,2-a]pyridin-6-yl)-4-[4-(ethylamino)-1-piperidyl]-2-methyl-indazole-7-carboxamide]	1000 to 10000	100 to 1000	1000 to 10000	> 10000	> 10000	> 10000	1000 to 10000
CCNC1CCN(c2ccc(C(=O)Nc3cc(Oc4ccc(Cl)cc4)c4nc(C)cn4c3)c3nn(C)cc23)CC1 [Compound 325, N-[8-(4-chloro-phenoxy)-2-methylimidazo[1,2-a]-pyridin-6-yl]-4-[4-(ethylamino)-1-piperidyl]-2-methyl-indazole-7-carboxamide]	100 to 1000	< 100	100 to 1000	1000 to 10000	1000 to 10000	1000 to 10000	100 to 1000
CCNC1CCN(c2ccc(C(=O)Nc3cc(Oc4cccc(C#N)c4)c4nc(C)cn4c3)c3nn(C)cc23)CC1 [Compound 326, N-[8-(3-cyano-phenoxy)-2-methylimidazo[1,2-a]pyridin-6-yl]-4-[4-(ethylamino)-1-piperidyl]-2-methyl-indazole-7-carboxamide]	1000 to 10000	100 to 1000	100 to 1000	1000 to 10000	1000 to 10000	1000 to 10000	100 to 1000
CCNC1CCN(c2ccc(C(=O)Nc3cc(Oc4cccc(C)c4)c4nc(C)cn4c3)c3nn(C)cc23)CC1 [Compound 327, 4-[4-(ethylamino)-1-piperidyl]-2-methyl-N-[2-methyl-8-(3-methylphenoxy)imidazo[1,2-a]pyridin-6-yl]indazole-7-carboxamide]	100 to 1000	< 100	100 to 1000	1000 to 10000	1000 to 10000	1000 to 10000	100 to 1000
